Like-named read-outs stand apart in the source and are kept apart here.
Columns and labels:
Type in all cases: cell-based
[1] = test system: Staphylococcus aureus ATCC 33591; experiment: MIC by micro-broth dilution, S. aureus ATCC 33591
[2] = test system: Staphylococcus aureus ATCC 700699; experiment: MIC by micro-broth dilution, S. aureus ATCC 700699
human cancer cells = experiment: Viability of human cancer cells at 72 hours post-treatment; details: relative to the potency of ONC201; viability of human cancer cells at 72 hours post-treatment
[3] = test system: NCI60 cancer cell line panel; experiment: NCI60 cancer cell line panel; details: NCI60 panel (FIG. 16)
[4] = test system: Staphylococcus aureus ATCC 29213; experiment: MIC by micro-broth dilution, S. aureus ATCC 29213; details: ATCC 29213; 24 hours

In the case of `COc1cccc(OC)c1C(=O)N[C@@H]1C(=O)N2[C@@H]1SC(C)(C)[C@@H]2C(=O)O` [Methicillin, reference compound], the MIC ([1]; ATCC33591, Staphylococcus aureus (ATCC 33591), methicillin resistant, read-out: MIC) is reported as > 100 µg/mL, the MIC90 ([1]; Staphylococcus aureus, ATCC33591, ATCC 33591, 24 hours, read-out: MIC90) is reported as > 100 µg/mL and the MIC ([1]; Staphylococcus aureus, ATCC33591, ATCC 33591, 24 hours, read-out: MIC95) is reported as > 100 µg/mL. For the same compound, the MIC99 ([1]; Staphylococcus aureus, ATCC33591, ATCC 33591, 24 hours, read-out: MIC99) was > 100 µg/mL, the MIC ([1]; Staphylococcus aureus, ATCC33591, ATCC 33591, 24 hours, read-out: MIC, Visual) was > 100 µg/mL and the MIC ([2]; ATCC700699, MDR Staphylococcus aureus (ATCC 700699), read-out: MIC) was > 100 µg/mL. The MIC90 ([2]; Staphylococcus aureus, ATCC700699, ATCC 700699 (48 hours), read-out: MIC90) was > 100 µg/mL, the MIC ([2]; Staphylococcus aureus, ATCC700699, ATCC 700699 (48 hours), read-out: MIC95) was > 100 µg/mL and the MIC99 ([2]; Staphylococcus aureus, ATCC700699, ATCC 700699 (48 hours), read-out: MIC99) was > 100 µg/mL. The MIC ([2]; Staphylococcus aureus, ATCC700699, ATCC 700699 (48 hours), read-out: MIC, Visual) was > 100 µg/mL.
For `O=C1C2=C(CCN(Cc3ccccc3)C2)N2CCN=C2N1Cc1cccs1` [ONC203], the “Relative Potency*” value (human cancer cells) was “C (C Indicates a potency decrease of >2-fold of ONC201)” and the “anti-cancer efficacy across tumor types” value [3] was “inactive negative control”.
For `O=C1C2=C(CCN(Cc3ccccc3)C2)N2CCN=C2N1CCc1ccccc1` [ONC204], the “Relative Potency*” value (human cancer cells) was “C (C Indicates a potency decrease of >2-fold of ONC201)”.
With `O=C1C2=C(CCN(Cc3ccccc3)C2)N2CCN=C2N1CCN1CCN(Cc2ccccc2)CC1` [ONC205] the “Relative Potency*” value (human cancer cells) was “C (C Indicates a potency decrease of >2-fold of ONC201)”.
In the case of `Cc1ccccc1CN1C(=O)C2=C(CCNC2)N2CCN=C12` [ONC207], the “Relative Potency*” value (human cancer cells) is reported as “B (B Indicates potency that is within 2-fold of ONC201)”, the MIC95 [4] is reported as >100 µg/mL and the MIC99 [4] is reported as >100 µg/mL. The “MIC, Visual” value [4] was >100 µg/mL, the MIC90 ([1]; ATCC 33591, 24 hours) was >100 µg/mL and the MIC95 ([1]; ATCC 33591, 24 hours) was >100 µg/mL. The MIC99 ([1]; ATCC 33591, 24 hours) was >100 µg/mL, the “MIC, Visual” value ([1]; ATCC 33591, 24 hours) was >100 µg/mL and the MIC90 ([2]; ATCC 700699 (48 hours)) was >100 µg/mL. For the same compound, the MIC95 ([2]; ATCC 700699 (48 hours)) was >100 µg/mL, the MIC99 ([2]; ATCC 700699 (48 hours)) was >100 µg/mL and the “MIC, Visual” value ([2]; ATCC 700699 (48 hours)) was >100 µg/mL.
For `Cc1ccccc1CN1C(=O)C2=C(CCN(C)C2)N2CCN=C12` [ONC208], the “Relative Potency*” value (human cancer cells) was “B (B Indicates potency that is within 2-fold of ONC201)”.
`Cc1ccccc1CN1C(=O)C2=C(CCN(CCc3ccccc3)C2)N2CCN=C12` [ONC209] was tested, and the “Relative Potency*” value (human cancer cells) was “B (B Indicates potency that is within 2-fold of ONC201)”.
`O=C1C2=C(CCN(Cc3ccccc3)C2)N2CCN=C2N1Cc1cc(F)cc(F)c1` [ONC210] was tested, and the “Relative Potency*” value (human cancer cells) was “B (B Indicates potency that is within 2-fold of ONC201)”.
In the case of `O=C1C2=C(CCN(Cc3ccccc3)C2)N2CCN=C2N1Cc1ccc(Cl)c(Cl)c1` [ONC211], the “Relative Potency*” value (human cancer cells) is reported as “B (B Indicates potency that is within 2-fold of ONC201)”.
`Cc1ccccc1CN1C(=O)C2=C(CCN(CCCN)C2)N2CCN=C12` [ONC216] was tested, and the “Relative Potency*” value (human cancer cells) was “B (B Indicates potency that is within 2-fold of ONC201)”.
`O=C1C2=C(CCN(Cc3ccccc3)C2)N2CCN=C2N1Cc1ccccc1F` [ONC217] was tested, and the “Relative Potency*” value (human cancer cells) was “C (C Indicates a potency decrease of >2-fold of ONC201)”.
With `Cc1cc(F)ccc1CN1C(=O)C2=C(CCN(Cc3ccccc3)C2)N2CCN=C12` [ONC218] the “Relative Potency*” value (human cancer cells) was “A (A Indicates a potency increase of >2-fold of ONC201)”.
In the case of `O=C1C2=C(CCN(Cc3ccccc3)C2)N2CCN=C2N1Cc1ccc(Cl)cc1Cl` [ONC219], the “Relative Potency*” value (human cancer cells) is reported as “A (A Indicates a potency increase of >2-fold of ONC201)”.
`COc1ccc(CN2C(=O)C3=C(CCN(Cc4ccccc4)C3)N3CCN=C23)cc1` [ONC220] was tested, and the “Relative Potency*” value (human cancer cells) was “A (A Indicates a potency increase of >2-fold of ONC201)”.
For `O=C1C2=C(CCNC2)N2CCN=C2N1Cc1ccc(C(F)(F)F)cc1` [ONC221], the “Relative Potency*” value (human cancer cells) was “A (A Indicates a potency increase of >2-fold of ONC201)”.
